The text below walks through data of patent US11319283B2, “Substituted cyclobutylbenzene compounds as indoleamine 2,3-dioxygenase (IDO) inhibitors” (MERCK SHARP & DOHME CORP., priority 2017, dated 2022).

One test addresses IDO1 (Homo sapiens, UniProt P14902). In words: IDO1 Cellular Assay in Hela Cells Stimulated with IFNγ. Format: cell-based. Further details: endogenous in cells; host or cells: HeLa cells stimulated with IFNγ (100 ng/mL). The conditions noted are these: Hela cells stimulated with IFNγ 100 ng/mL, 300 uM L-tryptophan, about 48 hours, fluorescence readout. How it is done:
IDO1 Cellular Assay in Hela Cells Stimulated with IFNγ
Hela cells were cultured in complete Hela culture medium (90% EMEM, 10% heat-inactivated fetal bovine serum) and expanded to about 1×10^9 cells. The cells were then collected and frozen down at 1×10^7 cells/vial in 1 mL frozen medium (90% complete Hela culture medium, 10% DMSO)
Compounds to be tested were serially diluted in ten 3-fold steps in DMSO starting from 10 mM DMSO stocks in Echo low volume plate(s).
Frozen Hela cells were thawed and transferred into Hela assay medium (99% complete Hela culture medium, 1% Pen/Strep) with 20 mL medium/vial of cells. The cells were spun down at 250 g in a table top centrifuge for 5 min and suspended in same volume of Hela assay medium. The cells were then counted and adjusted to a density of 2×10^5 cells/ml in Hela assay medium. Sterile L-tryptophan were added to the cells with final concentration of 300 uM L-tryptophan. A small aliquot (2 mL/plate) of Hela cells were set aside and were not treated with IFNγ, to serve as the Max-E control.
Hela cells with and without IFNγ were dispensed to the respective wells of 384-well assay plates containing the compounds. The plates were incubated for about 48 hours at a 37° C., 5% CO2 incubator. Afterwards, […] of 0.5 M methyl isonipecotate in dimethyl sulfoxide were added into each well and the plates were sealed and incubated at 37° C. without CO2 overnight. The plates were centrifuged for 1 min at 200×g. The resulting fluorescence was measured in a Spectramax plate reader (Molecular Devices) with a 400 nm excitation filter and a 510 nm emission filter.
Potencies were calculated by linear least squares fit to the four parameter logistic IC50 equation.

Another test deals with T1, TDO (Homo sapiens, UniProt P48775).
T1 construct: endogenous in cells; host or cells: SW48 cells (A2780 cells as control with minimal TDO activity)
T1 sequence (P48775 whole entry): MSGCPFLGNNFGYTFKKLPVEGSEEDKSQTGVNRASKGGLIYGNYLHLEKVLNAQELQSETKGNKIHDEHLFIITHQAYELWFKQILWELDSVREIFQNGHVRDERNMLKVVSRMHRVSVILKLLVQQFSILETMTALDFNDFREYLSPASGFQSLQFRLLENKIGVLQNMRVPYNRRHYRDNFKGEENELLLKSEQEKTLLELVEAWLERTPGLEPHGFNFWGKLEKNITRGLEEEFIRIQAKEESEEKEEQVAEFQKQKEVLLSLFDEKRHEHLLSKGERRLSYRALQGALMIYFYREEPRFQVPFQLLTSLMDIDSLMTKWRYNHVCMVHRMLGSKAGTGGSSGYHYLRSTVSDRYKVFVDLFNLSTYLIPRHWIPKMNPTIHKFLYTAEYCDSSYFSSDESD
Kind of test: TDO Cellular Assay in Frozen SW48 Cells. The conditions noted are these: 300 uM L-tryptophan, about 48 hours, fluorescence readout. The test is classed as cell-based. The protocol: TDO Cellular Assay in Frozen SW48 Cells
SW48 cells were cultured in complete RPMI culture medium (90% RPMI, 10% heat-inactivated fetal bovine serum).
Compounds to be tested were serially diluted in ten 3-fold steps in DMSO starting from 10 mM DMSO stocks in Echo low volume plate(s). […] The cells were spun down at 350 g in a table top centrifuge for 5 minutes and suspended in same volume of RPMI assay medium. […] Sterile L-tryptophan (Sigma, Cat # T0254) was added to the cells with final concentration of 300 uM.
SW48 and A2780 cells were dispensed to the respective wells of 384-well assay plates containing the compounds. The plates were incubated for about 48 hours at a 37° C., 5% CO2 incubator. Afterwards, 12 μL of 0.5 M ethyl isonipecotate (Sigma Aldrich, Cat # E33505) in dimethyl sulfoxide were added into each well and the plates were sealed and incubated at 37° C. without CO2 overnight. The plates were centrifuged for 1 minute at 200×g. The resulting fluorescence was measured in a Spectramax plate reader (Molecular Devices) with a 400 nm excitation filter and a 510 nm emission filter.
The fluorescence intensity of each well was corrected for the background observed in wells with A2780 cells and was expressed as a fraction of the intensity observed in wells of SW48 cells and DMSO only. Potencies were calculated by linear least squares fit to the four parameter logistic IC50 equation.

IDO1, sequence (P14902 whole entry): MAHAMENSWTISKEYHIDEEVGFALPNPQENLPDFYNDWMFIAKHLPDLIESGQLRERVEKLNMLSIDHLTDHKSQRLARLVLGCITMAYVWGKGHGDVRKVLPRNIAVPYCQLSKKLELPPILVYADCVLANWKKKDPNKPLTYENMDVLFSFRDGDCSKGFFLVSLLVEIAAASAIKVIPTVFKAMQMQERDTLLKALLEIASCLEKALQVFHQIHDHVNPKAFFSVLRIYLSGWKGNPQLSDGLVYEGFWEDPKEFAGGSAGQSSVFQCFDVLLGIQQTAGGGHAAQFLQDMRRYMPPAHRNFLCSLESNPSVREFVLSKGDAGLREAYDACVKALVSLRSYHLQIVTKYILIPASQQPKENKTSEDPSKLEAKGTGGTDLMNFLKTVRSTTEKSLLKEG

With `O=C(Nc1ccc(C2(NC(=O)c3ccc(Cl)cn3)CCC2)cc1)c1cccc(Cl)c1` [Example 9, 5-chloro-N-(1-{4-[(3-chlorobenzene-1-carbonyl)amino]phenyl}cyclobutyl)pyridine-2-carboxamide], the figures for the IC50 on IDO1 and at TDO were 11 nM and at least 10000 nM, respectively.
Turning to `CC(NC(=O)C1(c2ccc(NC(=O)c3cccc(Cl)c3)cc2)CCC1)C1CC1` (centres unmarked) [Example 41, 3-chloro-N-(4-{1-[(1-cyclopropylethyl)carbamoyl]cyclobutyl}phenyl) benzamide], at IDO1, the IC50 (usually the concentration at which inhibition is half-maximal) turned out to be 101 nM.
For the compound `Cn1ccnc1C(=O)NC1(c2ccc(NC(=O)c3cccc(Cl)c3)cc2)CCC1` [Example 6, N-(1-{4-[(3-chlorobenzene-1-carbonyl)amino]phenyl}cyclobutyl)-1-methyl-1H-imidazole-2-carboxamide], the IC50 against IDO1 is 577 nM; against TDO, at least 10000 nM.
`CC1CC1NC(=O)C1(c2ccc(NC(=O)c3cccc(Cl)c3)cc2)CCC1` (single isomer, unassigned) [Example 23, 3-chloro-N-(4-(1-((2-methylcyclopropyl)carbamoyl)cyclobutyl)phenyl)benzamide]: the values for the IC50 against IDO1 and at TDO were 78 nM and at least 10000 nM, respectively.
The matching figures for `O=C(Nc1ccc(C2(C(=O)NS(=O)(=O)c3ccccc3)CCC2)cc1)c1cccc(Cl)c1` [Example 53, 3-chloro-N-(4-{1-[(phenylsulfonyl)carbamoyl]cyclobutyl}phenyl) benzamide]: 834 nM and at least 10000 nM.
Taken in the same sequence, the figures for `CCCNC(=O)C1(c2ccc(NC(=O)C3Cc4ccccc43)cc2)CCC1` (centres unmarked) [Example 87, N-{4-[1-(propylcarbamoyl)cyclobutyl]phenyl}bicyclo[4.2.0]octa-1,3,5-triene-7-carboxamide] were 1050 nM and at least 10000 nM.
The matching figures for `O=C(Nc1ccc(C2(C(=O)Nc3ccc(F)cc3F)CCC2)cc1)c1cccc(Cl)c1` [Example 25, 3-chloro-N-(4-{1-[(2,4-difluorophenyl)carbamoyl]cyclobutyl}phenyl) benzamide]: 3 nM and at least 10000 nM.
Turning to `CCCNC(=O)C1(c2ccc(NC(=O)c3cc(F)cc(Cl)c3)cc2)CCC1` [Example 79, 3-chloro-5-fluoro-N-{4-[1-(propylcarbamoyl)cyclobutyl]phenyl}benzamide], the half-maximal inhibitory concentration (IC50) against IDO1 was 11 nM; at TDO, at least 10000 nM.
`CCCNC(=O)C1(c2ccc(NC(=O)c3nnsc3C)cc2)CCC1` [Example 54, 5-Methyl-N-(4-(1-(propylcarbamoyl)cyclobutyl)phenyl)-1,2,3-thiadiazole-4-carboxamide] gave an IC50 at IDO1 of 500 nM.
Regarding `O=C(Nc1ccc(C2(C(=O)Nc3ccc(Cl)cc3)CCC2)cc1)c1cccc(Cl)c1` [Example 24, 3-chloro-N-(4-{1-[(4-chlorophenyl)carbamoyl]cyclobutyl}phenyl) benzamide], the IC50 against IDO1 was 3 nM; at TDO, at least 10000 nM.
The matching figures for `O=C(Nc1ccc(C2(C(=O)Nc3ccc(F)c(F)c3)CCC2)cc1)c1cccc(Cl)c1` [Example 26, 3-chloro-N-(4-{1-[(3,4-difluorophenyl)carbamoyl]cyclobutyl}phenyl) benzamide]: 3 nM and at least 10000 nM.
The matching figures for `O=C(Nc1ccc(C2(NC(=O)c3cnccn3)CCC2)cc1)c1cccc(Cl)c1` [Example 3, N-(1-{4-[(3-chlorobenzene-1-carbonyl)amino]phenyl}cyclobutyl)pyrazine-2-carboxamide]: 131 nM and at least 10000 nM.
Consider `CC1CC1NC(=O)C1(c2ccc(NC(=O)c3cccc(Cl)c3)cc2)CCC1` (centres unmarked) [Example 46, 3-chloro-N-(4-{1-[(2-methylcyclopropyl)carbamoyl]cyclobutyl}phenyl) benzamide], for which the half-inhibitory concentration (IC50) on IDO1 was found to be 13 nM.
Consider `CCCNC(=O)C1(c2ccc(NC(=O)c3ccc(Cl)c(Cl)c3)cc2)CCC1` [Example 81, 3,4-dichloro-N-{4-[1-(propylcarbamoyl)cyclobutyl]phenyl}benzamide], for which the results for the 50% inhibitory concentration (IC50) at IDO1 and against TDO were 13 nM and at least 10000 nM, respectively.
Take `CCOC1CC1NC(=O)C1(c2ccc(NC(=O)c3cccc(Cl)c3)cc2)CC(F)(F)C1` (centres unmarked) [Example 65]: the IC50 is 71 nM at IDO1 and at least 10000 nM on TDO.
Consider `CCO[C@@H]1C[C@@H]1NC(=O)C1(c2ccc(NC(=O)c3cccc(Cl)c3)cc2)CC(F)(F)C1` [Example 64, 3-chloro-N-[4-(1-{[(1S,2R)-2-ethoxycyclopropyl]carbamoyl}-3,3-difluorocyclobutyl)phenyl] benzamide], for which the IC50 at IDO1 was 37 nM; against TDO it was at least 10000 nM.
Taken in the same sequence, the figures for `O=C(Nc1ccc(C2(C(=O)NC3CC3C(F)F)CCC2)cc1)c1cccc(Cl)c1` (centres unmarked) [Example 37, 3-chloro-N-[4-(1-{[2-(difluoromethyl)cyclopropyl]carbamoyl}cyclobutyl)phenyl] benzamide] were 28 nM and at least 10000 nM.
Taken in the same sequence, the figures for `CCO[C@@H]1C[C@H]1NC(=O)C1(c2ccc(NC(=O)c3cccc(Cl)c3)cc2)CC(F)(F)C1` [Example 68, 3-chloro-N-[4-(1-{[(1R,2R)-2-ethoxycyclopropyl]carbamoyl}-3,3-difluorocyclobutyl)phenyl] benzamide] were 1440 nM and at least 10000 nM.
As to `CCCNC(=O)C1(c2ccc(NC(=O)c3cc(C)no3)cc2)CCC1` [Example 56, 3-methyl-N-{4-[1-(propylcarbamoyl)cyclobutyl]phenyl}-1,2-oxazole-5-carboxamide], the IC50 at IDO1 was 923 nM.
Same read-out and setting: the value for `O=C(Nc1ccc(C2(C(=O)NCC3CC3)CCC2)cc1)c1cccc(Cl)c1` [Example 48, 3-chloro-N-(4-{1-[(cyclopropylmethyl)carbamoyl]cyclobutyl}phenyl)benzamide] was 27 nM; that for `CCCC(=O)NC1(c2ccc(NC(=O)c3cccc(Cl)c3)cc2)CCC1` [Example 1, N-(4-(1-Butyramidocyclobutyl)phenyl)-3-chlorobenzamide] was 48 nM.
Same read-out and setting: the value for `CCCNC(=O)C1(c2ccc(NC(=O)c3coc(CC)n3)cc2)CCC1` [Example 57, 2-ethyl-N-{4-[1-(propylcarbamoyl)cyclobutyl]phenyl}-1,3-oxazole-4-carboxamide] was 1710 nM.
Still for that read-out and setting: the value for `O=C(Nc1ccc(C2(C(=O)NCCC(F)(F)F)CCC2)cc1)c1cccc(Cl)c1` [Example 47, 3-chloro-N-(4-{1-[(3,3,3-trifluoropropyl)carbamoyl]cyclobutyl}phenyl) benzamide] was 26 nM.
On to `CCCNC(=O)C1(c2ccc(NC(=O)c3ccc(CN)cc3)cc2)CCC1` [Example 55, 4-(aminomethyl)-N-{4-[1-(propylcarbamoyl)cyclobutyl]phenyl} benzamide], for which the IC50 at IDO1 came out at 613 nM.
`O=C(Nc1ccc(C2(C(=O)NC3CC(F)(F)C3)CCC2)cc1)c1cccc(Cl)c1` [Example 38, 3-chloro-N-(4-{1-[(3,3-difluorocyclobutyl)carbamoyl]cyclobutyl}phenyl) benzamide] yielded an IC50 against IDO1 of 31 nM.
The same measure, in the same setting: the value for `O=C(Nc1ccc(C2(C(=O)NC34CC(C3)C4)CCC2)cc1)c1cccc(Cl)c1` [Example 39, N-(4-{1-[(bicyclo[1.1.1]pentan-1-yl)carbamoyl]cyclobutyl}phenyl)-3-chlorobenzamide] was 34 nM; that for `CCCNC(=O)C1(c2ccc(NC(=O)c3cn4ncccc4n3)cc2)CCC1` [Example 58, N-{4-[1-(propylcarbamoyl)cyclobutyl]phenyl}imidazo[1,2-b]pyridazine-2-carboxamide] was 2010 nM; that for `CC(NC(=O)C1(c2ccc(NC(=O)c3cccc(Cl)c3)cc2)CCC1)C1CCCO1` (centres unmarked) [Example 43, 3-chloro-N-[4-(1-{[1-(oxolan-2-yl)ethyl]carbamoyl}cyclobutyl)phenyl]benzamide] was 660 nM.
Same read-out and setting: the value for `CCNC(=O)C1(c2ccc(NC(=O)c3cccc(Cl)c3)cc2)CCC1` [Example 50] was 151 nM.
